Laboratory results as given in the NIST ThermoML archive (doi:10.1016/j.jct.2017.06.018).

Details: Liquid, Closed cell (Static) method

C=C(F)C(F)(F)F [2,3,3,3-tetrafluoro-1-propene]
Details | vapor or sublimation pressure [kPa]
243.15 K | 99.4
248.15 K | 123.2
253.15 K | 151.4
258.15 K | 184.2
263.15 K | 222.4
268.15 K | 266.9
273.15 K | 317.2
278.15 K | 374.4
283.15 K | 438.5
288.15 K | 511.9
293.15 K | 591.7
